Measurements reported in the NIST ThermoML archive (doi:10.1021/je201211f).

Assays:
[1] = xn = mol fraction of the nth substance listed; details: 101 kPa, Liquid; for mass density: Vibrating tube method; for viscosity: Capillary tube (Ostwald / Ubbelohde) method
[2] = refractive index (Na D-line) (dimensionless); xn = mol fraction of the nth substance listed; details: 298.15 K, 101 kPa, Liquid

ClC=C(Cl)Cl [trichloroethene] + Cc1cccc(C)c1
[1]
Details | mass density, 293.15 K [kg/m3] | mass density, 298.15 K [kg/m3] | mass density, 303.15 K [kg/m3] | viscosity, 298.15 K [mPa·s]
x1 = 0.0494 | 886.2 | 881.77 | 877.34 | –
x1 = 0.0768 | – | – | – | 0.5895
x1 = 0.0796 | 899.93 | 895.43 | 890.91 | –
x1 = 0.1465 | – | – | – | 0.5893
x1 = 0.1531 | 934.34 | 929.62 | 924.88 | –
x1 = 0.23 | 971.87 | 966.92 | 961.95 | –
x1 = 0.2415 | – | – | – | 0.5895
x1 = 0.3097 | 1012.52 | 1007.32 | 1002.09 | –
x1 = 0.3204 | – | – | – | 0.5897
x1 = 0.3935 | – | – | – | 0.5893
x1 = 0.4065 | 1064.66 | 1059.1 | 1053.53 | –
x1 = 0.4841 | 1108.6 | 1102.78 | 1096.93 | –
x1 = 0.496 | – | – | – | 0.5883
x1 = 0.5561 | 1151.33 | 1145.2 | 1139.05 | –
x1 = 0.5613 | – | – | – | 0.5875
x1 = 0.6423 | – | – | – | 0.5863
x1 = 0.6453 | 1206.86 | 1200.35 | 1193.84 | –
x1 = 0.709 | 1248.6 | 1241.79 | 1234.95 | –
x1 = 0.7204 | – | – | – | 0.5851
x1 = 0.7639 | – | – | – | 0.5844
x1 = 0.7989 | 1310.61 | 1303.35 | 1296.06 | –
x1 = 0.8774 | – | – | – | 0.5823
x1 = 0.8937 | 1380.16 | 1372.41 | 1364.61 | –
x1 = 0.9596 | – | – | – | 0.5808
x1 = 0.974 | 1442.88 | 1434.66 | 1426.38 | –

[2]
Details | refractive index
x1 = 0.085 | 1.4932
x1 = 0.1622 | 1.4922
x1 = 0.2415 | 1.4908
x1 = 0.3204 | 1.4894
x1 = 0.3935 | 1.488
x1 = 0.496 | 1.4859
x1 = 0.5613 | 1.4845
x1 = 0.6429 | 1.4825
x1 = 0.7226 | 1.4807
x1 = 0.8061 | 1.4789
x1 = 0.8832 | 1.4773
x1 = 0.9596 | 1.4756

ClC=C(Cl)Cl [trichloroethene] + Cc1ccc(C)cc1
Details | mass density [kg/m3] | refractive index | viscosity [mPa·s]
[1], 293.15 K, x1 = 0.0843 | 899.17 | – | –
[1], 293.15 K, x1 = 0.1806 | 944.97 | – | –
[1], 293.15 K, x1 = 0.2528 | 980.96 | – | –
[1], 293.15 K, x1 = 0.3239 | 1017.91 | – | –
[1], 293.15 K, x1 = 0.403 | 1060.83 | – | –
[1], 293.15 K, x1 = 0.49 | 1110.44 | – | –
[1], 293.15 K, x1 = 0.5689 | 1157.79 | – | –
[1], 293.15 K, x1 = 0.6381 | 1201.31 | – | –
[1], 293.15 K, x1 = 0.7202 | 1255.5 | – | –
[1], 293.15 K, x1 = 0.7975 | 1309.15 | – | –
[1], 293.15 K, x1 = 0.8925 | 1379.16 | – | –
[1], 293.15 K, x1 = 0.9582 | 1430.28 | – | –
[1], 298.15 K, x1 = 0.0843 | 894.6 | – | –
[1], 298.15 K, x1 = 0.0897 | – | – | 0.6075
[1], 298.15 K, x1 = 0.154 | – | – | 0.606
[1], 298.15 K, x1 = 0.1806 | 940.12 | – | –
[1], 298.15 K, x1 = 0.2402 | – | – | 0.6043
[1], 298.15 K, x1 = 0.2528 | 975.88 | – | –
[1], 298.15 K, x1 = 0.318 | – | – | 0.6026
[1], 298.15 K, x1 = 0.3239 | 1012.59 | – | –
[1], 298.15 K, x1 = 0.399 | – | – | 0.5999
[1], 298.15 K, x1 = 0.403 | 1055.25 | – | –
[1], 298.15 K, x1 = 0.4801 | – | – | 0.5968
[1], 298.15 K, x1 = 0.49 | 1104.53 | – | –
[1], 298.15 K, x1 = 0.5624 | – | – | 0.594
[1], 298.15 K, x1 = 0.5689 | 1151.57 | – | –
[1], 298.15 K, x1 = 0.6381 | 1194.8 | – | –
[1], 298.15 K, x1 = 0.64 | – | – | 0.5915
[1], 298.15 K, x1 = 0.718 | – | – | 0.5888
[1], 298.15 K, x1 = 0.7202 | 1248.62 | – | –
[1], 298.15 K, x1 = 0.7975 | 1301.88 | – | –
[1], 298.15 K, x1 = 0.8 | – | – | 0.5861
[1], 298.15 K, x1 = 0.8834 | – | – | 0.5834
[1], 298.15 K, x1 = 0.8925 | 1371.4 | – | –
[1], 298.15 K, x1 = 0.9582 | 1422.14 | – | –
[1], 298.15 K, x1 = 0.9632 | – | – | 0.5808
[1], 303.15 K, x1 = 0.0843 | 890.02 | – | –
[1], 303.15 K, x1 = 0.1806 | 935.27 | – | –
[1], 303.15 K, x1 = 0.2528 | 970.8 | – | –
[1], 303.15 K, x1 = 0.3239 | 1007.28 | – | –
[1], 303.15 K, x1 = 0.403 | 1049.65 | – | –
[1], 303.15 K, x1 = 0.49 | 1098.61 | – | –
[1], 303.15 K, x1 = 0.5689 | 1145.35 | – | –
[1], 303.15 K, x1 = 0.6381 | 1188.25 | – | –
[1], 303.15 K, x1 = 0.7202 | 1241.69 | – | –
[1], 303.15 K, x1 = 0.7975 | 1294.56 | – | –
[1], 303.15 K, x1 = 0.8925 | 1363.59 | – | –
[1], 303.15 K, x1 = 0.9582 | 1413.95 | – | –
[2], Standard Abbe refractometry, x1 = 0.0897 | – | 1.4921 | –
[2], Standard Abbe refractometry, x1 = 0.154 | – | 1.4911 | –
[2], Standard Abbe refractometry, x1 = 0.2402 | – | 1.4897 | –
[2], Standard Abbe refractometry, x1 = 0.318 | – | 1.4885 | –
[2], Standard Abbe refractometry, x1 = 0.399 | – | 1.4873 | –
[2], Standard Abbe refractometry, x1 = 0.4801 | – | 1.486 | –
[2], Standard Abbe refractometry, x1 = 0.5624 | – | 1.4844 | –
[2], Standard Abbe refractometry, x1 = 0.64 | – | 1.4829 | –
[2], Standard Abbe refractometry, x1 = 0.721 | – | 1.4811 | –
[2], Standard Abbe refractometry, x1 = 0.7988 | – | 1.4794 | –
[2], Standard Abbe refractometry, x1 = 0.8834 | – | 1.4775 | –
[2], Standard Abbe refractometry, x1 = 0.961 | – | 1.4753 | –
